“And” between values parts separate entries of the source, which are not always exact repeats. Identical values can stand only once.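 Step 1: Grow cells in 96-well plates. Step 2: Expose to compound for 48 hours at 5 concentrations. Step 3: Interpolate endpoints linearly; if unreached, use highest concentration. GI50 is the concentration that inhibits growth by half. Definition used: TGI = concentration required for complete inhibition of growth.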
Key:
Assay in all cases: NCI tumour cell line growth inhibition, 48 h
786-0 renal = tested on: 786-0 renal
DMS 273 small cell lung = tested on: DMS 273 small cell lung
HOP-92 NSCLC = tested on: HOP-92 NSCLC
LXFL 529 NSCLC = tested on: LXFL 529 NSCLC
NCI-H226 lung = tested on: NCI-H226 lung
OVCAR-8 ovarian = tested on: OVCAR-8 ovarian
RXF 393 renal = tested on: RXF 393 renal
SF-268 CNS = tested on: SF-268 CNS
UACC-257 melanoma = tested on: UACC-257 melanoma
HS 578T breast = tested on: HS 578T breast

With OCCCCCNc1ccnc2cc(Cl)ccc12 the TGI (786-0 renal) was > 100 µM, the TGI (DMS 273 small cell lung) was > 100 µM and the TGI (HOP-92 NSCLC) was > 100 µM. For the same compound, the TGI (LXFL 529 NSCLC) was > 100 µM, the TGI (NCI-H226 lung) was > 100 µM and the TGI (OVCAR-8 ovarian) was > 100 µM. The TGI (RXF 393 renal) was > 100 µM, the TGI (SF-268 CNS) was > 100 µM and the TGI (UACC-257 melanoma) was > 100 µM.
For COc1ccc2c(c1OC)C(C=C(c1ccccc1)c1ccccc1)CN(C)C2 (stereo not given), the TGI (786-0 renal) was 39.5 µM, the TGI (DMS 273 small cell lung) was 34.9 µM and the TGI (HOP-92 NSCLC) was 40.1 µM. The TGI (LXFL 529 NSCLC) was 34.7 µM, the TGI (NCI-H226 lung) was 98.6 µM and the TGI (OVCAR-8 ovarian) was 67 µM. The TGI (SF-268 CNS) was 72.2 µM and the TGI (UACC-257 melanoma) was 54.8 µM.
CSC1SCC2C(=O)N(C)C(C(C)C)C(=O)OCC(NC(=O)c3cnc4ccccc4n3)C(=O)NC(C)C(=O)N(C)C1C(=O)N(C)C(C(C)C)C(=O)OCC(NC(=O)c1cnc3ccccc3n1)C(=O)NC(C)C(=O)N2C (stereo not given) was tested, and the GI50 (786-0 renal) was < 0.001 µM, the GI50 (DMS 273 small cell lung) was 40 pM and the GI50 (HOP-92 NSCLC) was < 0.001 µM. The GI50 (HS 578T breast) was < 0.001 µM, the TGI (HS 578T breast) was 0.00282 µM and 0.00359 µM and the GI50 (NCI-H226 lung) was 0.00325 µM. The GI50 (OVCAR-8 ovarian) was < 0.001 µM, the GI50 (RXF 393 renal) was < 0.001 µM and the GI50 (SF-268 CNS) was < 0.001 µM. The GI50 (UACC-257 melanoma) was < 0.001 µM.
For COc1c(Cl)[c]([Hg][O]C(C)=O)c(NCC(C)=O)c(OC)[c]1[Hg][O]C(C)=O, the GI50 (786-0 renal) was 3.44 µM, the TGI (786-0 renal) was 12.9 µM and the GI50 (HOP-92 NSCLC) was 2.28 µM. For the same compound, the TGI (HOP-92 NSCLC) was 6.8 µM, the GI50 (LXFL 529 NSCLC) was 1.06 µM and the TGI (LXFL 529 NSCLC) was 3.68 µM. It also gave a GI50 (NCI-H226 lung) of 18.7 µM, a TGI (NCI-H226 lung) of 43.1 µM and a GI50 (OVCAR-8 ovarian) of 13.6 µM. The TGI (OVCAR-8 ovarian) was 32.4 µM, the GI50 (RXF 393 renal) was 14.4 µM and the TGI (RXF 393 renal) was 30.4 µM. It also gave a GI50 (SF-268 CNS) of 11.4 µM, a TGI (SF-268 CNS) of 30.8 µM and a GI50 (UACC-257 melanoma) of 15.4 µM. For the same compound, the TGI (UACC-257 melanoma) was 29.9 µM.
For CC(C)(C)C1CCC(=O)C(C(O)CC2CC(=O)N(c3ccccc3)C(=O)C2)C1 (stereo not given), the TGI (786-0 renal) was > 100 µM, the TGI (DMS 273 small cell lung) was > 100 µM and the TGI (HOP-92 NSCLC) was > 100 µM. The TGI (LXFL 529 NSCLC) was > 100 µM, the TGI (NCI-H226 lung) was > 100 µM and the TGI (OVCAR-8 ovarian) was > 100 µM. For the same compound, the TGI (RXF 393 renal) was > 100 µM, the TGI (SF-268 CNS) was > 100 µM and the TGI (UACC-257 melanoma) was > 100 µM.
CC(C)C1NC(=O)[C@H](C)OC(=O)[C@@H](C(C)C)NC(=O)[C@@H](C)OC(=O)C(C(C)C)NC(=O)[C@H](C)OC1=O (stereo not given in full) was tested, and the TGI (786-0 renal) was 47.2 µM, the TGI (DMS 273 small cell lung) was > 100 µM and the TGI (HOP-92 NSCLC) was > 100 µM. The TGI (LXFL 529 NSCLC) was > 100 µM, the TGI (NCI-H226 lung) was > 100 µM and the TGI (OVCAR-8 ovarian) was > 100 µM. The TGI (SF-268 CNS) was > 100 µM and the TGI (UACC-257 melanoma) was > 100 µM.
With CC(=O)OC1(C#N)CC2OC1C1N=NN(C(=O)OC(C)(C)C)C21 (stereo not given) the TGI (786-0 renal) was > 100 µM, the TGI (DMS 273 small cell lung) was > 100 µM and the TGI (HOP-92 NSCLC) was > 31.6 µM. The TGI (LXFL 529 NSCLC) was > 100 µM, the TGI (NCI-H226 lung) was > 100 µM and the TGI (OVCAR-8 ovarian) was > 100 µM. For the same compound, the TGI (RXF 393 renal) was > 31.6 µM, the TGI (SF-268 CNS) was > 100 µM and the TGI (UACC-257 melanoma) was > 31.6 µM.
[N-]=[N+]=NC1C2CC3CC(C2)CC1C3 (stereo not given) was tested, and the TGI (786-0 renal) was > 100 µM, the TGI (DMS 273 small cell lung) was > 100 µM and the TGI (HOP-92 NSCLC) was > 100 µM. The TGI (LXFL 529 NSCLC) was > 100 µM, the TGI (NCI-H226 lung) was > 100 µM and the TGI (OVCAR-8 ovarian) was > 100 µM. The TGI (UACC-257 melanoma) was > 100 µM.
For CCC(C)(C)NS(=O)(=O)c1ccccc1, the TGI (786-0 renal) was > 100 µM, the TGI (DMS 273 small cell lung) was > 100 µM and the TGI (LXFL 529 NSCLC) was > 100 µM. For the same compound, the TGI (OVCAR-8 ovarian) was > 100 µM, the TGI (RXF 393 renal) was > 100 µM and the TGI (UACC-257 melanoma) was > 100 µM.
For CC1(C)Oc2ccccc2[N+]([O-])=C1c1ccccc1, the TGI (786-0 renal) was > 100 µM, the TGI (DMS 273 small cell lung) was > 100 µM and the TGI (HOP-92 NSCLC) was > 100 µM. For the same compound, the TGI (LXFL 529 NSCLC) was > 100 µM, the TGI (OVCAR-8 ovarian) was > 100 µM and the TGI (RXF 393 renal) was > 100 µM. For the same compound, the TGI (SF-268 CNS) was > 100 µM and the TGI (UACC-257 melanoma) was > 100 µM.
Cc1nc(-n2nc(-c3ccccc3)cc2-c2ccccc2)sc1C(=O)/C=C/c1ccc(Cl)cc1 was tested, and the TGI (786-0 renal) was 27.4 µM, the TGI (DMS 273 small cell lung) was > 100 µM and the TGI (HOP-92 NSCLC) was 43 µM. For the same compound, the TGI (NCI-H226 lung) was 42.1 µM, the TGI (OVCAR-8 ovarian) was > 100 µM and the TGI (RXF 393 renal) was 28.1 µM. For the same compound, the TGI (SF-268 CNS) was > 100 µM and the TGI (UACC-257 melanoma) was 49.1 µM.
With C/C(=N\NS(=O)(=O)c1c(C)cc(C)cc1C)c1ccc[n+]([O-])n1 the TGI (786-0 renal) was 36 µM, the TGI (DMS 273 small cell lung) was 34.8 µM and the TGI (HOP-92 NSCLC) was 22.8 µM. It also gave a TGI (LXFL 529 NSCLC) of 23.4 µM, a TGI (OVCAR-8 ovarian) of 79 µM and a TGI (SF-268 CNS) of 53.7 µM. For the same compound, the TGI (UACC-257 melanoma) was 22.7 µM.
COC(=O)C1=C(O)c2cc3c(cc2[C@H](c2cc(OC)c(OC)c(OC)c2)C1)OCO3 was tested, and the TGI (786-0 renal) was > 100 µM, the TGI (DMS 273 small cell lung) was > 100 µM and the TGI (HOP-92 NSCLC) was > 100 µM. The TGI (LXFL 529 NSCLC) was > 100 µM, the TGI (NCI-H226 lung) was > 100 µM and the TGI (OVCAR-8 ovarian) was > 100 µM. For the same compound, the TGI (RXF 393 renal) was > 100 µM, the TGI (SF-268 CNS) was > 100 µM and the TGI (UACC-257 melanoma) was 95.1 µM.
COC(=O)c1ccc(/C=C/S(=O)(=O)c2ccccc2)cc1 was tested, and the TGI (786-0 renal) was > 100 µM, the TGI (DMS 273 small cell lung) was > 100 µM and the TGI (HOP-92 NSCLC) was > 100 µM. The TGI (LXFL 529 NSCLC) was > 100 µM, the TGI (NCI-H226 lung) was > 100 µM and the TGI (OVCAR-8 ovarian) was > 100 µM. For the same compound, the TGI (RXF 393 renal) was > 100 µM, the TGI (SF-268 CNS) was > 100 µM and the TGI (UACC-257 melanoma) was > 100 µM.
For CCOc1ccc(N=Cc2ccc3ccccc3n2)cc1, the TGI (786-0 renal) was > 100 µM, the TGI (DMS 273 small cell lung) was > 100 µM and the TGI (HOP-92 NSCLC) was > 100 µM. The TGI (LXFL 529 NSCLC) was > 100 µM, the TGI (NCI-H226 lung) was > 100 µM and the TGI (OVCAR-8 ovarian) was > 100 µM. The TGI (RXF 393 renal) was > 100 µM, the TGI (SF-268 CNS) was > 100 µM and the TGI (UACC-257 melanoma) was > 100 µM.
For Cc1ccc(-c2cc(=O)c3cc(C)c(C)c(C(=O)O)c3o2)cc1[N+](=O)[O-], the TGI (786-0 renal) was > 100 µM, the TGI (DMS 273 small cell lung) was > 100 µM and the TGI (LXFL 529 NSCLC) was > 100 µM. The TGI (NCI-H226 lung) was > 100 µM, the TGI (OVCAR-8 ovarian) was > 100 µM and the TGI (RXF 393 renal) was > 100 µM. The TGI (SF-268 CNS) was > 100 µM and the TGI (UACC-257 melanoma) was > 100 µM.

— PubChem BioAssay (NCI)
